In patent publication US20100298394A1, “ANTIFUNGAL AGENTS AS NEUROPROTECTANTS” (THE JOHNS HOPKINS UNIVERSITY, priority 2007, published 2010):

Legend:
[1] = system: rat mixed hippocampal cultures; assay: HIV-1 Tat neurotoxicity assay, MTT endpoint; format: cell-based; conditions: for protection of hippocampal cultures from HIV-Tat toxicity (FIG. 5): increasing concentrations, 1 hour preincubation, 500 nM Tat1-72 for 18 hours; for protection from HIV-1 Tat toxicity (positive controls, FIG. 3): 10 μM, 1 hour pretreatment, 500 nM Tat for 18 hours
Excerpt: (§1) We evaluate the protective efficacy of a number of antifungal agents against many different neurotoxins, ranging from the chemotoxic 6-OHDA, NMDA, 3-nitropropionic acid (3-NP), and viral proteins such as Tat and gp120. Thus, we provide an in vitro neuroprotection assay using rat mixed hippocampal cultures, in which we evaluate the protective efficacy of neuroprotective compounds described herein. The oxidative stressor 3-NP is used to elicit toxicity in the rat hippocampal cultures to mimic the oxidative damage, reactive oxygen species production and ensuing neurodegeneration resulting from HIV infection. Another measure of neurotoxicity which results from HIV infection is evaluated by exposure of the hippocampal cultures to HIV-1 Tat (Li et al (2005), Neurotox Res, 8(1-2):119-134).
(§2) Rat mixed hippocamal neuronal cultures are generated from freshly dissected rat hippocampi (embryonic day 18) in neurobasal media containing 5% fetal bovine serum and 2% B27 supplement. The cells are plated into 96 well plates at a density of 4×10^5 cells/mL and routinely used on days 11-14 following culturing. Cell viability is assessed with MTT [3-(4,5-dimethylthiazol-2-yl)-2,5-diphenyltetrazolium bromide] assay. The MTT assay is based on the ability of a mitochondrial dehydrogenase enzyme from viable cells to cleave the tetrazolium rings of the pale yellow MTT and form dark blue formazan crystals. See Mosmann (1983), J Immunol Methods, 65(1-2):55-63. These crystals are largely impermeable to cell membranes, and thus accumulate within healthy cells. The resultant formazan precipitates are solubilized with DMSO and read on a multiwell scanning spectrophotometer (ELISA reader). The number of surviving cells is directly proportional to the level of the formazan product created.
The assay system is validated using two neuroprotective agents, GPI 1046 and Resveratrol. […] Cultures are preincubated with GPI 1046 or Resveratrol for one hour prior to an 18 hour exposure to 3 mM 3-NP. […] The same neuroprotective compounds are evaluated for efficacy against HIV-1 Tat protein toxicity using the same 1 hour preincubation protocol.
The neural and glial cells were preincubated with the neuroprotective compound for 1 hour followed by exposure to 500 nM of Tat1-72 for 18 hours.

[2] = system: rat mixed hippocampal cultures; assay: 3-NP neurotoxicity (neuroprotection) assay, MTT endpoint; format: cell-based; conditions: for protection from oxidative damage elicited by 3-NP (FIG. 4): increasing concentrations, 1 h prior to 3 mM 3-NP for 18 h; for Protection vs 3NP / % Protection vs. 3-NP: 10 μM agent, 60 minutes incubation, 3 mM 3-NP, compared to 0.1% DMSO vehicle control; for protection from oxidative damage elicited by 3-NP (positive controls, FIG. 2): 10 μM, 1 hour pretreatment, 3 mM 3-NP for 18 hours
Method: For example, a cell viability assay can be utilized to detect and/or measure the ability of a compound disclosed herein to protect neuronal and/or glial cells. In some embodiments, mixed hippocampal cell cultures are prepared as described in, e.g., Haughey et al. (1999), J Neurochem, 73(4):1363-1374, and Haughey et al (2004), J Neurosci, 24(1):257-268. Subsequently, the cultures are pretreated for one hour in the presence of a candidate neuroprotective agent and then incubated with a cytotoxic agent for about 18 hours. Examples of cytotoxic agents include, but are not limited to, oxidative stressors (e.g., 3-nitropropionic acid (3-NP) or H2O2),.excitatory amino acids (e.g., kainate), or neurotoxic proteins (e.g., Hiv Tat, or Aβ peptides). […] The level of protection (“percent protection”) provided by the test compound at a given test concentration in vitro can be expressed as: […]
as §1, §2
Mixed hippocampal cultures are incubated with 3-NP (0.5-10 mM) for 18 hours in a 0.1% DMSO vehicle and then assessed for viability using an MTT assay.
Neuroprotection vs 3NP is measured as a percentage of neural and/or glial cell that are protected from 3NP induced cell death after incubation with the neuroprotective agent (10 μM) for 60 minutes when compared to a 0.1% DMSO vehicle control.
The neural and glial cells were preincubated with the neuroprotective compound for 1 hour followed by exposure to3 mM of the toxin for 18 hours.

| SMILES | Protection vs 3NP [2] | % Protection vs. 3-NP [2] | other results |
| --- | --- | --- | --- |
| Clc1ccc(COC(Cn2ccnc2)c2ccc(Cl)cc2Cl)cc1 (stereo not shown) [econazole] | – | – | protection of hippocampal cultures from HIV-Tat toxicity (FIG. 5) [1]: concentration dependent protection; protection from oxidative damage elicited by 3-NP (FIG. 4) [2]: protect hippocampal neurons from oxidative damage elicited by 3-NP |
| Fc1ccc(C(c2ccccc2)(c2ccccc2F)n2ccnc2)cc1 (stereo not shown) [FLUTRIMAZOLE] | 46.85% | – | – |
| Oc1ccc(C=Cc2cc(O)cc(O)c2)cc1 [Resveratrol] | – | – | protection from HIV-1 Tat toxicity (positive controls, FIG. 3) [1]: protected hippocampal neurons from Tat toxicity; protection from oxidative damage elicited by 3-NP (positive controls, FIG. 2) [2]: significantly protected rat neurons from oxidative damage |
| Clc1ccc(COC(Cn2ccnc2)c2ccc(Cl)cc2Cl)c(Cl)c1 (stereo not shown) [miconazole] | – | – | protection of hippocampal cultures from HIV-Tat toxicity (FIG. 5) [1]: concentration dependent protection; protection from oxidative damage elicited by 3-NP (FIG. 4) [2]: protect hippocampal neurons from oxidative damage elicited by 3-NP |
| COc1ccc(/C=C/c2cc(O)cc(O[C@@H]3O[C@H](CO)[C@@H](O)[C@H](O)[C@H]3O)c2)cc1O [RHAPONTIN] | 22.12% | – | – |
| Clc1ccc(COC(Cn2ccnc2)c2ccc(Cl)cc2Cl)c(Cl)c1 (stereo not shown) [MICONAZOLE NITRATE, Miconazole Nitrate] | 81.61% | 81.6% | – |
| Clc1ccc(COC(Cn2ccnc2)c2ccc(Cl)cc2Cl)cc1 (stereo not shown) [ECONAZOLE NITRATE, Econazole Nitrate] | 141.18% | 141.2% | – |
| CCCCCCOc1ccccc1C(N)=O [EXALAMIDE] | 9.19% | – | – |
| Clc1ccccc1C(c1ccccc1)(c1ccccc1)n1ccnc1 [CLOTRIMAZOLE, Clotrimazole] | 12.57% | 12.6% | protection of hippocampal cultures from HIV-Tat toxicity (FIG. 5) [1]: concentration dependent protection; protection from oxidative damage elicited by 3-NP (FIG. 4) [2]: protect hippocampal neurons from oxidative damage elicited by 3-NP |
| CCC(C)(C)C(=O)C(=O)N1CCC[C@H]1C(=O)OCCCc1cccnc1 [GPI 1046] | – | – | protection from HIV-1 Tat toxicity (positive controls, FIG. 3) [1]: protected hippocampal neurons from Tat toxicity; protection from oxidative damage elicited by 3-NP (positive controls, FIG. 2) [2]: significantly protected rat neurons from oxidative damage |
| C[C@@H]1[C@H](O)[C@@H](C)/C=C/C=C/CC/C=C/C=C/C=C/C=C/C(O[C@H]2O[C@H](C)[C@@H](O)[C@H](N)[C@@H]2O)CC2O[C@](O)(CC(O)C(O)CCC(O)CC(O)CC(O)CC(=O)O[C@H]1C)CC(O)C2C(=O)O (stereo partly shown) [NYSTATIN] | 46.72% | – | – |
| CC(=O)N1CCN(c2ccc(OCC3COC(Cn4ccnc4)(c4ccc(Cl)cc4Cl)O3)cc2)CC1 (stereo not shown) [KETOCONAZOLE] | 20.93% | – | – |
| Cc1cccc(N(C)C(=S)Oc2ccc3ccccc3c2)c1 [TOLNAFTATE, Tolnaftate] | 66.83% | 66.8% | protection of hippocampal cultures from HIV-Tat toxicity (FIG. 5) [1]: concentration dependent protection; protection from oxidative damage elicited by 3-NP (FIG. 4) [2]: protect hippocampal neurons from oxidative damage elicited by 3-NP |
| CC(=O)OCC(COC(C)=O)OC(C)=O [TRIACETIN] | 45.14% | – | – |
| Clc1ccc(CSC(Cn2ccnc2)c2ccc(Cl)cc2Cl)cc1 (stereo not shown) [SULCONAZOLE NITRATE, Sulconazole Nitrate] | 18.21% | 18.21% | – |
